Assay results reported in patent EP2725026A1, “Heterocyclic neoflavonoids with taste masking properties” (Symrise AG, priority 2012, dated 2014).

How the values were obtained:
Assay type in all cases: in vivo
[1] = Bitterness reduction of a bitter substance solution (expert sensory panel), naringin; settings: 100 ppm Naringin; for Bitter-Eindruck (1-10) mit Testsubstanz: scale 1 [nicht bitter] to 10 [extrem bitter]
Text: (§1) Um die Reduzierung (d.h. die Maskierung oder Verminderung) des Bitter-Eindrucks in einer Probe zu quantifizieren, wurde die Bitterkeit einer Lösung enthaltend 500 ppm Coffein oder 300 ppm Theobromin oder 100 ppm Naringin von einer Expertengruppe jeweils mit einer Probe verglichen, die 500 ppm Coffein oder 300 ppm Theobromin oder 100 ppm Naringin und zusätzlich die jeweils angegebene Menge einer (hinsichtlich der Fähigkeit zur Bitter-Reduzierung) zu beurteilenden Substanz enthielt (Einstufung: 1 [nicht bitter] bis 10 [extrem bitter]). Für die Auswertung, d.h. die Berechnung der Reduktion (in %) des Bittereindrucks wurden jeweils die Durchschnittswerte der Einschätzungen der Expertengruppe verwendet. Die Ergebnisse sind in Tabelle 1 zusammengefasst: Tabelle 1 Bitter-reduzierung einer Bitterstofflösung

[2] = Bitterness reduction of a bitter substance solution (expert sensory panel), caffeine; settings: 500 ppm Coffein; for Bitter-Eindruck (1-10) mit Testsubstanz: scale 1 [nicht bitter] to 10 [extrem bitter]
Text: as §1

[3] = Bitterness reduction of a bitter substance solution (expert sensory panel), theobromine; settings: 25 ppm test substance, 300 ppm Theobromin; for Bitter-Eindruck (1-10) mit Testsubstanz: scale 1 [nicht bitter] to 10 [extrem bitter]
Text: as §1

Row | SMILES | % Reduktion des Bitter-Eindrucks (Signifikanz) ([1]; 25 ppm test substance, p < 0,0001) | Bitter-Eindruck (1-10) mit Testsubstanz ([1]; 25 ppm test substance, without test substance 6,6 ± 2,0) | % Reduktion des Bitter-Eindrucks (Signifikanz) ([2]; 10 ppm test substance, p < 0,0007) | Bitter-Eindruck (1-10) mit Testsubstanz ([2]; 10 ppm test substance, without test substance 3,8 ± 1,3) | Bitter-Eindruck (1-10) mit Testsubstanz ([3]; without test substance 3,6 ± 2,0) | % Reduktion des Bitter-Eindrucks (Signifikanz) ([3]; without test substance 3,6 ± 2,0, p < 0,25) | % Reduktion des Bitter-Eindrucks (Signifikanz) ([1]; 50 ppm test substance, p < 0,02) | Bitter-Eindruck (1-10) mit Testsubstanz ([1]; 50 ppm test substance, without test substance 5,0 ± 2,0) | % Reduktion des Bitter-Eindrucks (Signifikanz) ([2]; 50 ppm test substance, p < 0,35) | Bitter-Eindruck (1-10) mit Testsubstanz ([2]; 50 ppm test substance, without test substance 3,5 ± 1,4) | Bitter-Eindruck (1-10) mit Testsubstanz ([3]; without test substance 4,2 ± 2,2)
1 | O=C1C[C@@H](c2ccncc2)c2c(O)cc(O)cc2O1 (racemic) [(1) + (2), (4S)-5,7-dihydroxy-4-(4-pyridyl)chroman-2-on (1) und (4R)-5,7-dihydroxy-4-(4-pyridyl)chroman-2-on (2)] | 52,1 % (p < 0,0001) | 3,2 + 1,5 | 37,0 % (p < 0,0007) | 2,4 + 1,0 | 2,9 ± 1,4 | 19,4 % (p < 0,25) | – | – | – | – | –
2 | O=C1C[C@@H](c2cccnc2)c2c(O)cc(O)cc2O1 (racemic) [(3) + (4), (4S)-5,7-dihydroxy-4-(3-pyridyl)chroman-2-on (3) und (4R)-5,7-dihydroxy-4-(3-pyridyl)chroman-2-on (4)] | – | – | – | – | – | – | 34,1 % (p < 0,02) | 3,3 ± 1,8 | 13,7% (p < 0,35) | 3,1 ± 1,7 | 3,4 ± 1,8
